Test results as given in patent US6440999B1, “Intimal thickening inhibitory agent” (Chugai Seiyaku Kabushiki Kaisha, priority 1995, dated 2002).

Key:
[1] = system: A7r5 cells derived from the aorta of a rat; experiment: Inhibition of serum-stimulated proliferation of vascular smooth muscle cells, acid phosphatase activity; assay type: cell-based; details: 48 hours after 2% FBS stimulation, n = 3, mean ± SD; for Acid Phosphatase Activity Absorbance (OD405): control 0.867 ± 0.089; for activity at 10 µM / activity at 30 µM / activity at 100 µM: Rattus norvegicus, A7R5, control 100 ± 10
Method: In order to assess the inhibitory effect of the compounds of the present invention on serum-stimulated proliferation of vascular smooth muscle cells in vitro, the compounds of Examples 1, 4, 20, 22, 27, 31, 36, 50, 52, and 58 were tested using A7r5 cells derived from the aorta of a rat (ATCC-CRL-1444).
Using DMEM medium containing 10% FBS, the cells were placed on 96-well microtiter plates with 5×10^3 cells/0.2 ml/ well and then incubated. The medium was exchanged for 2% FBS-containing DMEM medium on the third day and then for 0.2% FBS-containing DMEM medium on the fourth day from the start of the incubation. After 24-hour incubation in the 0.2% FBS-containing DMEM medium, the test compound was added. Each of the test compounds were added to the wells in the form of a solution or suspension in ethanol in an amount of 1 μl/well to final compound concentrations indicated in Table 3 below and the resultant ethanol concentration of 0.5% in each well. After additional 24-hour incubation, the medium was removed, and 0.2 ml of DMEM medium and the test compound were added thereto again, and the cells were stimulated by serum (2% FBS). Forty-eight hours after the stimulation, the acid phosphatase activity in the wells was measured by means of a kit (Abacus Cell Proliferation Kit, available from Clontech Lab. Inc. CA, U.S.A.) and evaluated as an indication of cell proliferation.

[2] = system: A7r5 cells derived from the aorta of a rat; experiment: Inhibition of serum- or PDGF-stimulated proliferation of vascular smooth muscle cells, [3H]-thymidine uptake; assay type: cell-based; details: uptake in 5 hours, n = 3, mean ± SD; for Count by Liquid Scintillation Counter, FBS Stimulation ([3H]-thymidine uptake): 2% FBS, control 42789 ± 1063; for Count by Liquid Scintillation Counter, PDGF Stimulation ([3H]-thymidine uptake): PDGF-BB 4 ng/ml, control 24517 ± 2370
Method: In order to assess the inhibitory effect of a compound of the present invention on serum- or PDGF-stimulated proliferation of vascular smooth muscle cells in vitro, the compound obtained in Example 36 was tested using A7r5 cells derived from the aorta of a rat (ATCC-CRL-1444). Further, the effect was compared with that of α-tocopherol which was reported to have an inhibitory effect on proliferation of vascular smooth muscle cells (see J. Biol. Chem., 266, pp. 6188-6194 (1991)).
Using DMEM medium containing 10% FBS, the cells were placed on 96-well microtiter plates with 5×10^3 cells/0.2 ml/well and then incubated. The medium was exchanged for 2% FBS-containing DMEM medium on the third day and then for 0.2% FBS-containing DMEM medium on the fourth day from the start of the incubation. After 48-hour incubation in the 0.2% FBS-containing DMEM medium, the medium was removed, 0.2 ml of DMEM medium and the test compound were added, and the cells were stimulated with serum (2% FBS) or PDGF (PDGF-BB: human origin, available from Becton Dickinson Labware) (4 ng/ml) to proliferate. The test compound was added to the wells in the form of a solution or suspension in ethanol in amount of 1 μl well to final compound concentrations indicated in Table 2 below and the resultant ethanol concentration of 0.5% in each well. Eight hours after the stimulation, hydroxyurea was added to a final concentration of 1.5 mM to synchronize the cell cycle strictly. After additional 14-hour incubation, the medium containing hydroxyurea was removed and the cells were washed, and DMEM medium, the test compound and the proliferation stimulator were added thereto again. Further, [^3H]-thymidine (1 μCi/well; […]; available from NEN Research) was added. The [^3H]-thymidine uptake in 5 hours was measured as an indication of cell proliferation.

[3] = system: rabbit balloon injury models; experiment: In vivo effect in intimal thickening model (2), rabbit balloon injury; details: cholesterol-fed rabbits, 15-week-old, 200 mg/kg oral once a day, four weeks after balloon treatment, mean ± SD
Method: In order to assess the inhibitory effect of the compound of the present invention on intimal thickening in vivo, the compound of Example 36 was tested using rabbit balloon injury models that were different from those used in Test Example 4 in week-age. Further, the effect was compared with that of Probucol which was reported to have an inhibitory effect on intimal thickening in balloon injury models (see Proc. Natl. Acad. Sci., U.S.A., 89, pp 11312-11316 (1992)).
Cholesterol-fed rabbits in groups of seven (JW: CSK male, 15-week-old) were used to prepare rabbit balloon injury models. Briefly, rabbits were fed with a high cholesterol diet (cholesterol content: 1%) for 2 weeks before balloon treatment. The animals were balloon-treated with a balloon catheter (4 French, available from Baxter) under anesthesia to peel the aortic intima 5 times. The animals were orally administered with the compound which was suspended in a 1% CMC solution (200 mg/kg). On the other hand, control animals were orally administered with a 1% CMC solution without the compound. The administrations were performed once a day from 1 week before the balloon treatment until the day before the dissection for evaluation. In order to evaluate the degree of balloon injury, a balloon-nontreated group (3 animals) was prepared.
After four weeks from the balloon treatment, specimens were taken from the aorta, stained with Elastica van Geison, and analyzed under an optical microscope. The image was processed to measure the thickness and area of the thickened intima. Averages of the thickness and area were obtained for each individual animal. The animals which died after the operation and those having a serum cholesterol level of 3500 mg/dl or higher were excluded from the measurement. The number of animals used for the evaluation was 4 or 5 per group.

| SMILES | Acid Phosphatase Activity Absorbance (OD405) ([1]; 10 μM) | Acid Phosphatase Activity Absorbance (OD405) ([1]; 30 μM) | activity at 10 µM ([1]; 10 μM) | activity at 30 µM ([1]; 30 μM) | also measured |
| --- | --- | --- | --- | --- | --- |
| CC1(C)Cc2c(cc(C(C)(C)C)c(O)c2C(C)(C)C)O1 [Example 4, 4,6-Di-t-butyl-5-hydroxy-2,2-dimethyl-2,3-dihydrobenzofuran] | 0.606 ± 0.020 | 0.062 ± 0.026 | 70 ± 2% | 7 ± 3% | – |
| CC(C)(C)c1cc2c(c(C(C)(C)C)c1O)CC1(CCCCCC1)O2 [Example 20, 4,6-Di-t-butyl-5-hydroxy-2,3-dihydrobenzofuran-2-spiro-1′-cycloheptane] | 0.472 ± 0.031 | 0.105 ± 0.027 | 54 ± 4% | 12 ± 3% | – |
| CC(C)(C)c1cc2c(c(C(C)(C)C)c1O)CCO2 [Example 1, 4,6-Di-t-butyl-5-hydroxy-2,3-dihydrobenzofuran] | 0.727 ± 0.032 | – | 84 ± 4% | – | Acid Phosphatase Activity Absorbance (OD405) ([1]; 100 μM): 0.288 ± 0.073; activity at 100 µM ([1]; 100 μM): 33 ± 8% |
| CC(C)(C)c1cc2occc2c(C(C)(C)C)c1O [Example 27, 4,6-Di-t-butyl-5-hydroxybenzofuran] | 0.553 ± 0.033 | 0.225 ± 0.064 | 64 ± 4% | 26 ± 7% | – |
| Cc1c(C)c2c(c(C)c1O)CC[C@@](C)(CCC[C@H](C)CCC[C@H](C)CCCC(C)C)O2 [α-Tocopherol, α-tocopherol, reference compound] | – | – | – | – | Count by Liquid Scintillation Counter, FBS Stimulation ([3H]-thymidine uptake) ([2]; 30 μM): 28058 ± 3912 CPM; Count by Liquid Scintillation Counter, PDGF Stimulation ([3H]-thymidine uptake) ([2]; 30 μM): 12493 ± 2978 CPM; Count by Liquid Scintillation Counter, FBS Stimulation ([3H]-thymidine uptake) ([2]; 100 μM): 25706 ± 4160 CPM; Count by Liquid Scintillation Counter, PDGF Stimulation ([3H]-thymidine uptake) ([2]; 100 μM): 12159 ± 2362 CPM |
| CC1(C)Cc2c(cc(C(C)(C)C)c(O)c2C(C)(C)C)S1 [Example 52, 4,6-Di-t-butyl-5-hydroxy-2,2-dimethyl-2,3-dihydrobenzothiophene] | 0.690 ± 0.071 | 0.043 ± 0.008 | 80 ± 8% | 5 ± 1% | – |
| CC(C)(C)c1cc2c(c(C(C)(C)C)c1O)CC1(CCCCC1)S2 [Example 58, 4,6-Di-t-butyl-5-hydroxy-2,3-dihydrobenzothiophene-2-spiro-1′-cyclohexane] | 0.417 ± 0.125 | 0.045 ± 0.006 | 48 ± 14% | 5 ± 1% | – |
| CCCCCC1(CCCCC)Cc2c(cc(C(C)(C)C)c(O)c2C(C)(C)C)S1 [Example 50, 4,6-Di-t-butyl-5-hydroxy-2,2-di-n-pentyl-2,3-dihydrobenzothiophene] | 0.699 ± 0.131 | 0.146 ± 0.026 | 81 ± 15% | 17 ± 3% | – |
| CCCOc1cc(C(C)(C)C)c(O)c(C(C)(C)C)c1C [Example 31, 2,6-Di-t-butyl-3-methyl-4-propyloxyphenol] | 0.756 ± 0.025 | – | 87 ± 3% | – | Acid Phosphatase Activity Absorbance (OD405) ([1]; 100 μM): 0.600 ± 0.102; activity at 100 µM ([1]; 100 μM): 69 ± 12% |
| CC(C)(Sc1cc(C(C)(C)C)c(O)c(C(C)(C)C)c1)Sc1cc(C(C)(C)C)c(O)c(C(C)(C)C)c1 [Probucol, reference compound] | – | – | – | – | Area of Intima ([3]; control 1.32 ± 0.22): 0.97 ± 0.28 mm²; Thickness of Intima ([3]; control 119 ± 19): 92 ± 17 μm |
| CC(C)(C)c1cc2c(c(C(C)(C)C)c1O)CC1(CCOCC1)O2 [Example 22, 4,6-Di-t-butyl-5-hydroxy-2,3-dihydrobenzofuran-2-spiro-4′-tetrahydropyran] | 0.875 ± 0.013 | – | 101 ± 1% | – | Acid Phosphatase Activity Absorbance (OD405) ([1]; 100 μM): 0.777 ± 0.062; activity at 100 µM ([1]; 100 μM): 90 ± 7% |
| CC1(CO)Cc2c(cc(C(C)(C)C)c(O)c2C(C)(C)C)O1 (stereo not shown) [Example 48, 4,6-Di-t-butyl-5-hydroxy-2-hydroxymethyl-2-methyl-2,3-dihydrobenzofuran] | – | – | – | – | melting point: 126 to 128 °C |
